According to PubChem BioAssay (NCI):
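Exposure lasted 48 hours, with cells grown in 96-well plates and compounds tested at five concentrations. At the TGI there is no net growth.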

Columns and labels:
Assay in all cases: DTP human tumour cell line panel, 48 h
U251 CNS = tested on: U251 CNS
IGROV1 ovarian = tested on: IGROV1 ovarian
UO-31 renal = tested on: UO-31 renal
SF-295 CNS = tested on: SF-295 CNS
EKVX NSCLC = tested on: EKVX NSCLC
SW-620 colon = tested on: SW-620 colon
NCI-H460 lung = tested on: NCI-H460 lung
K-562 leukemia = tested on: K-562 leukemia
MDA-N = tested on: MDA-N
RXF 393 renal = tested on: RXF 393 renal
HCT-116 colon = tested on: HCT-116 colon
HOP-62 NSCLC = tested on: HOP-62 NSCLC
KM12 colon = tested on: KM12 colon
HOP-92 NSCLC = tested on: HOP-92 NSCLC
T-47D breast = tested on: T-47D breast
NCI-H226 lung = tested on: NCI-H226 lung
UACC-62 melanoma = tested on: UACC-62 melanoma
SNB-75 CNS = tested on: SNB-75 CNS
NCI/ADR-RES ovarian = tested on: NCI/ADR-RES ovarian
CAKI-1 renal = tested on: CAKI-1 renal
786-0 renal = tested on: 786-0 renal
ACHN renal = tested on: ACHN renal
SF-539 CNS = tested on: SF-539 CNS
PC-3 prostate = tested on: PC-3 prostate
RPMI-8226 leukemia = tested on: RPMI-8226 leukemia
A549 NSCLC = tested on: A549 NSCLC
SK-MEL-28 melanoma = tested on: SK-MEL-28 melanoma
SK-OV-3 ovarian = tested on: SK-OV-3 ovarian
SF-268 CNS = tested on: SF-268 CNS
NCI-H522 lung = tested on: NCI-H522 lung
SNB-19 CNS = tested on: SNB-19 CNS
HCT-15 colon = tested on: HCT-15 colon
COLO 205 colon = tested on: COLO 205 colon
OVCAR-8 ovarian = tested on: OVCAR-8 ovarian
HCC-2998 colon = tested on: HCC-2998 colon
MCF7 breast = tested on: MCF7 breast
OVCAR-4 ovarian = tested on: OVCAR-4 ovarian
NCI-H23 lung = tested on: NCI-H23 lung
MDA-MB-435 = tested on: MDA-MB-435
MALME-3M melanoma = tested on: MALME-3M melanoma
MDA-MB-231 breast = tested on: MDA-MB-231 breast
OVCAR-5 ovarian = tested on: OVCAR-5 ovarian
CCRF-CEM leukemia = tested on: CCRF-CEM leukemia
BT-549 breast = tested on: BT-549 breast
DU-145 prostate = tested on: DU-145 prostate
UACC-257 melanoma = tested on: UACC-257 melanoma
SR leukemia = tested on: SR leukemia
OVCAR-3 ovarian = tested on: OVCAR-3 ovarian
M14 melanoma = tested on: M14 melanoma
A498 renal = tested on: A498 renal
MOLT-4 leukemia = tested on: MOLT-4 leukemia
SN12C renal = tested on: SN12C renal
HT29 colon = tested on: HT29 colon
SK-MEL-5 melanoma = tested on: SK-MEL-5 melanoma
TK-10 renal = tested on: TK-10 renal
HL-60(TB) leukemia = tested on: HL-60(TB) leukemia
LOX IMVI melanoma = tested on: LOX IMVI melanoma
SK-MEL-2 melanoma = tested on: SK-MEL-2 melanoma

Measured: TGI

N#Cc1ccsc1Nc1ccccc1[N+](=O)[O-]
not listed: HT29 colon | SK-MEL-5 melanoma | TK-10 renal | HL-60(TB) leukemia | LOX IMVI melanoma | SK-MEL-2 melanoma
> 100 µM: all other assays above

CC(=O)/C=C/CCC(=O)/C=C/C(=O)OC(CCC(=O)/C=C/C(=O)O)CC(C)=O (stereo unspecified)
not listed: UO-31 renal | SNB-75 CNS | CAKI-1 renal | SK-OV-3 ovarian | A498 renal | LOX IMVI melanoma | SK-MEL-2 melanoma
> 100 µM: all other assays above

CC(C)(C)C1=NC(=S)SC2=NC(=O)C3(NN21)c1ccccc1-c1ccccc13
not listed: U251 CNS | HCT-116 colon | SF-539 CNS | OVCAR-5 ovarian | OVCAR-3 ovarian | A498 renal | SK-MEL-2 melanoma
> 10 µM: all other assays above

CC1(C)C[C@H]2[C@H](O)C(CO)=C3C(=O)[C@@H](O)[C@]3(C)[C@H]2C1
53.3 µM: MOLT-4 leukemia
84 µM: CCRF-CEM leukemia
not listed: NCI-H460 lung | SNB-75 CNS | HL-60(TB) leukemia
> 100 µM: all other assays above

Cc1ccc(NC(=S)C#N)cc1Cl
85.7 µM: OVCAR-5 ovarian
62.8 µM: HOP-92 NSCLC
73.7 µM: A498 renal
80.3 µM: CCRF-CEM leukemia
97.8 µM: RXF 393 renal
65.2 µM: COLO 205 colon
48.4 µM: IGROV1 ovarian
75 µM: SNB-75 CNS
70.5 µM: SF-539 CNS
56.2 µM: RPMI-8226 leukemia
52.8 µM: HCC-2998 colon
53.8 µM: OVCAR-3 ovarian
not listed: UO-31 renal | NCI-H460 lung | NCI-H522 lung | SNB-19 CNS | OVCAR-4 ovarian | HL-60(TB) leukemia
> 100 µM: all other assays above
